Laboratory results taken from article PMC6934184, “Selective DNA-PKcs inhibition extends the therapeutic index of localized radiotherapy and chemotherapy” (The Journal of Clinical Investigation, 2019).

Target: T1, FES (FPS) (Homo sapiens, UniProt P07332)
T1 construct: purchased Thermo Fisher Scientific (Life Technologies) SelectScreen
Assay: SelectScreen Z'LYTE
Type: biochemical
Summary of the method: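 SelectScreen broad panel; activity (Z'LYTE, Adapta) plus binding formats. ATP: Km app for CSF1R Z'LYTE; 10 for CAMK1 Adapta. Readout = % per kinase.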

T1 sequence (P07332 whole entry): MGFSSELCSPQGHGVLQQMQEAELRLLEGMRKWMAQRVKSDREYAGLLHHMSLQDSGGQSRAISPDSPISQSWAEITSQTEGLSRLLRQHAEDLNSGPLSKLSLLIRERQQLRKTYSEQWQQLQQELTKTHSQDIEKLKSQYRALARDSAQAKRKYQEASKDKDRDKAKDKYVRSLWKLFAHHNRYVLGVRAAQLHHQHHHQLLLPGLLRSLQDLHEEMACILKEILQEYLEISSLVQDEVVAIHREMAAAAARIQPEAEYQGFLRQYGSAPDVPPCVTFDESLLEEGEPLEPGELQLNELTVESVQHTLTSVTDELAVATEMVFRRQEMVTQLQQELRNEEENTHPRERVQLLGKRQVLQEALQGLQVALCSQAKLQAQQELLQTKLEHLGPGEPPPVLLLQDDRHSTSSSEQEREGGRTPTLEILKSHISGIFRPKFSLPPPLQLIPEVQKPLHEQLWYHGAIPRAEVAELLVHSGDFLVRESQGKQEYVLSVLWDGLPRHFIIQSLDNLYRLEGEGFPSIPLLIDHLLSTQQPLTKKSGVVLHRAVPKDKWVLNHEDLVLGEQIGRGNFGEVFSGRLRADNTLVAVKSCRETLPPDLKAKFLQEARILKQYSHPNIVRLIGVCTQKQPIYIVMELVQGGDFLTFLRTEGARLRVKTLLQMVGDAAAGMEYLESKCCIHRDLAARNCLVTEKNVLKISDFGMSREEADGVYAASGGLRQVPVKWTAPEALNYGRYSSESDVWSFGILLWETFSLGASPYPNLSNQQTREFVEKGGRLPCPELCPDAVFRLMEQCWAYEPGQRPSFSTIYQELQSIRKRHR

For CN(C(=O)CN1CCOCC1)c1ccc2sc3c(-c4cccc5c(=O)cc(N6CC7CCC(C6)O7)oc45)cccc3c2c1 [NU5455], the inhibition at 1 µM was 10.4%.
